Test results published in US20120270819A1, “USE OF COMPOUNDS WITH SGLT-1/SGLT-2 INHIBITOR ACTIVITY FOR PRODUCING MEDICAMENTS FOR TREATMENT OF BONE DISEASE” (SANOFI, priority 2009, published 2012).

Tested on: female Sprague-Dawley mature and young adult rats
Assay: Biomechanical testing: L3, L4 vertebral compression
Assay type: in vivo, rat
Settings: for AUC (work to failure), percent difference from Vehicle Control / Apparent Strength, percent difference from Vehicle Control / Modulus, percent difference from Vehicle Control / Peak Load, percent difference from Vehicle Control / Stiffness, percent difference from Vehicle Control / Toughness, percent difference from Vehicle Control / Yield Load, percent difference from Vehicle Control / Yield Stress, percent difference from Vehicle Control / AUC (work to failure) / Apparent Strength / Modulus / Peak Load / Stiffness / Toughness / Yield Load / Yield Stress: L3 + L4 vertebral bodies; for AUC (work to failure) / Apparent Strength / Modulus / Peak Load / Stiffness / Toughness / Yield Load / Yield Stress: mean
Experimental: Biomechanical testing was performed using an 858 Mini Bionix Servohydraulic Test System, Model 242.03. All data was collected using TestWorks® version 3.8A for TestStar™ software, version 4.0C.
At necropsy, all specimens were cleaned of excess tissue (not scraped) and individually wrapped in gauze soaked with saline, covered with plastic film and placed in an appropriately labelled plastic bag. Bone samples were retained frozen (ca −20° C.) until subjected to the following biomechanical evaluations:
For compression testing, the vertebral body of the vertebrae was isolated by removing the vertebral arch and removing both inter-vertebral discs. The section obtained had two parallel cut surfaces and the trabecular bone exposed.
The L3 and L4 vertebral body were tested in compression to failure. The loading rate was set at 20 mm/min. Load and displacement data were collected and apparent strength and modulus were calculated using the peak load, stiffness, individual vertebral body height and cross sectional area from the pQCT scans. The work to failure was determined from the area under the curve (AUC) and toughness was calculated. Yield load was originally derived using a 0.2% off-set however a 0.1% off-set was considered more appropriate and yield stress was calculated. All data derived from the 0.2% off-set yield load was kept with the study file but not reported.

COc1ccc(Cc2c(OC3OC(CO)C(F)C(O)C3O)n[nH]c2C(F)(F)F)cc1 (centres unmarked) [Example 5 of formula II]
Strength parameters at the lumbar spine (50 mg/kg/day): positively affected
AUC (work to failure), percent difference from Vehicle Control (mature adults, 10 mg/kg/day): 3.5%
Apparent Strength, percent difference from Vehicle Control (mature adults, 10 mg/kg/day): 3.4%
Modulus, percent difference from Vehicle Control (mature adults, 10 mg/kg/day): −2.0%
Peak Load, percent difference from Vehicle Control (mature adults, 10 mg/kg/day): 6.0%
Stiffness, percent difference from Vehicle Control (mature adults, 10 mg/kg/day): 0.9%
Toughness, percent difference from Vehicle Control (mature adults, 10 mg/kg/day): 2.0%
Yield Load, percent difference from Vehicle Control (mature adults, 10 mg/kg/day): 4.3%
Yield Stress, percent difference from Vehicle Control (mature adults, 10 mg/kg/day): 2.1%
AUC (work to failure) (mature adults, 10 mg/kg/day): 21.5 N-mm
Apparent Strength (mature adults, 10 mg/kg/day): 48.3 MPa
Modulus (mature adults, 10 mg/kg/day): 2102.6 MPa
Peak Load (mature adults, 10 mg/kg/day): 375.5 N
Stiffness (mature adults, 10 mg/kg/day): 5308.6 N/mm
Toughness (mature adults, 10 mg/kg/day): 0.9 MPa
Yield Load (mature adults, 10 mg/kg/day): 329.3 N
Yield Stress (mature adults, 10 mg/kg/day): 42.5 MPa
AUC (work to failure), percent difference from Vehicle Control (mature adults, 50 mg/kg/day): 22.1%
Apparent Strength, percent difference from Vehicle Control (mature adults, 50 mg/kg/day): 14.1%
Modulus, percent difference from Vehicle Control (mature adults, 50 mg/kg/day): 2.5%
Peak Load, percent difference from Vehicle Control (mature adults, 50 mg/kg/day): 21.6%
Stiffness, percent difference from Vehicle Control (mature adults, 50 mg/kg/day): 17.8%
Toughness, percent difference from Vehicle Control (mature adults, 50 mg/kg/day): 20.6%
Yield Load, percent difference from Vehicle Control (mature adults, 50 mg/kg/day): 16.6%
Yield Stress, percent difference from Vehicle Control (mature adults, 50 mg/kg/day): 9.2%
AUC (work to failure) (mature adults, 50 mg/kg/day): 25.4 N-mm
Apparent Strength (mature adults, 50 mg/kg/day): 53.3 MPa
Modulus (mature adults, 50 mg/kg/day): 2197.6 MPa
Peak Load (mature adults, 50 mg/kg/day): 430.6 N
Stiffness (mature adults, 50 mg/kg/day): 6194.6 N/mm
Toughness (mature adults, 50 mg/kg/day): 1.1 MPa
Yield Load (mature adults, 50 mg/kg/day): 368.0 N
Yield Stress (mature adults, 50 mg/kg/day): 45.5 MPa
AUC (work to failure), percent difference from Vehicle Control (young adults, 10 mg/kg/day): −9.8%
Apparent Strength, percent difference from Vehicle Control (young adults, 10 mg/kg/day): 3.5%
Modulus, percent difference from Vehicle Control (young adults, 10 mg/kg/day): 19.2%
Peak Load, percent difference from Vehicle Control (young adults, 10 mg/kg/day): 5.2%
Stiffness, percent difference from Vehicle Control (young adults, 10 mg/kg/day): 12.0%
Toughness, percent difference from Vehicle Control (young adults, 10 mg/kg/day): −19.6%
Yield Load, percent difference from Vehicle Control (young adults, 10 mg/kg/day): 8.3%
Yield Stress, percent difference from Vehicle Control (young adults, 10 mg/kg/day): 6.1%
AUC (work to failure) (young adults, 10 mg/kg/day): 14.4 N-mm
Apparent Strength (young adults, 10 mg/kg/day): 34.4 MPa
Modulus (young adults, 10 mg/kg/day): 1559.1 MPa
Peak Load (young adults, 10 mg/kg/day): 255.9 N
Stiffness (young adults, 10 mg/kg/day): 4009.8 N/mm
Toughness (young adults, 10 mg/kg/day): 0.7 MPa
Yield Load (young adults, 10 mg/kg/day): 222.5 N
Yield Stress (young adults, 10 mg/kg/day): 29.9 MPa
AUC (work to failure), percent difference from Vehicle Control (young adults, 50 mg/kg/day): 2.1%
Apparent Strength, percent difference from Vehicle Control (young adults, 50 mg/kg/day): 16.4%
Modulus, percent difference from Vehicle Control (young adults, 50 mg/kg/day): 23.3%
Peak Load, percent difference from Vehicle Control (young adults, 50 mg/kg/day): 10.2%
Stiffness, percent difference from Vehicle Control (young adults, 50 mg/kg/day): 10.3%
Toughness, percent difference from Vehicle Control (young adults, 50 mg/kg/day): 1.5%
Yield Load, percent difference from Vehicle Control (young adults, 50 mg/kg/day): 9.7%
